Experimental data: PMC8949806, “Automated Synthesis of ^68Ga-Labeled DOTA-MGS8 and Preclinical Characterization of Cholecystokinin-2 Receptor Targeting” (Molecules, 2022)
Where a SMILES comes first, the peptide text is derived from it. [ ]: non-standard residue; d: D form. The star is where a group is joined. DOTA = O=C(O)CN1CCN(CC(=O)O)CCN(CC(=O)*)CCN(CC(=O)O)CC1; 1Nal = N[C@@H](Cc1cccc2ccccc12)C(=O)O; NMeNle = CCCC[C@H](NC)C(=O)O

Assay: in vivo
Parameters: species or system BALB/c nude mice
Details: female, BALB/c nude, mouse, iv, total radioactivity
Description: Biodistribution studies were performed in accordance with the ethical standards of the institution and approved by the Austrian Ministry of Science (BMWFW-66.011/0072-V/3b/2019). In vivo studies were carried out in 6–8-week-old female BALB/c nude mice xenografted with A431-CCK2R/A431-mock cells (Charles River, Sulzfeld, Germany; n = 4). For the induction of the tumor xenografts, 150 μL DMEM containing 2 × 10^6 A431-CCK2R and A431-mock cells were injected subcutaneously into the right and left flanks of each mouse. Tumors were allowed to grow for 10–14 days. [^68Ga]Ga-DOTA-MGS8 used in animal studies was prepared as described in the Supplementary Materials (page 2, Figures S1 and S2). To remove any hydrophilic impurities after radiolabeling, the solution was passed through a Sep-Pak® Light C18 cartridge (Waters, Milford, MA) preconditioned with ethanol and physiological saline. [^68Ga]Ga-DOTA-MGS8 was then eluted with 600 µL of a mixture of ethanol and PBS (2/1; v/v) followed by 1100 µL PBS. To this solution, 20 µL of 0.01 M bicarbonate was added for pH adjustment. The final injection solution was diluted with PBS containing 0.5% bovine serum albumin (BSA) to reach an injected radioactivity of ~200 kBq and a total injected peptide amount of ~30 pmol. [^68Ga]Ga-DOTA-MGS8 was administered in 150 µL via a lateral tail vein. The mice were euthanized 1 h p.i. by cervical spine dislocation. […] All organs, including blood and the remaining body, were weighed and their radioactivity was measured using the gamma-counter together with a standard. For the determination of radioactivity in the different tissues, a standard of 10 µL of the injection solution, as well as a 50 µL aliquot of a 1:10 and 1:50 dilution of the injection solution, were measured along with samples taken from the animals. […] The volume injected to each mouse was determined by calculating the difference in weight of the syringe before and after injection. Results were expressed as the percentage of injected activity per gram tissue (% IA/g).

CCCC[C@@H](C(=O)N[C@@H](CC(=O)O)C(=O)N[C@@H](Cc1cccc2ccccc12)C(N)=O)N(C)C(=O)[C@H](Cc1c[nH]c2ccccc12)NC(=O)CNC(=O)[C@H](Cc1ccc(O)cc1)NC(=O)[C@@H]1CCCN1C(=O)[C@@H](CCC(=O)O)NC(=O)CN1CCN(CC(=O)O)CCN(CC(=O)O)CCN(CC(=O)O)CC1 [[^68Ga]Ga-DOTA-MGS8, metal not drawn] ({DOTA}-[dE]PYGW[NMeNle]D[1Nal]-NH2)
tissue to tissue ratio at 1 h (Tumor-to-blood ratio): 13.4 ± 1.77
tissue to tissue ratio at 1 h (Tumor-to-kidney ratio): 4.41 ± 0.4
tissue to tissue ratio at 1 h (Tumor-to-stomach ratio): 11 ± 2.05
